Measurements from paper PMC12698583, “Efficacy of sulfonamides targeting malic enzyme in an animal model of Chagas disease” (Frontiers in Pharmacology, 2025).

How the values were obtained:
[1] = Tolerability study, Hippocratic screening; format: in vivo, mice; parameters: Hypnosis / Sedation / Urination / Tachypnea / Muscle tone / Convulsions / Salivation / Tremors / Vocalization / Limb abduction / Ataxia: scale not given here; conditions: 150 mg/kg PO
Protocol: A tolerability study of drug candidates was conducted using the Hippocratic screening protocol, focusing on the assessment of effects on the central nervous system (CNS) and autonomic nervous system (ANS). Each group containing 3 animals received a 150 mg/kg dose of the compounds via oral (PO) administration (gavage). During the experiment, various behavioral and physiological parameters were monitored at regular intervals, ranging from 0 to 24 hours after administration of the substance.

Stability in HBSS buffer = format: physicochemical; conditions: 37°C, 2 hours
Protocol: The compounds were evaluated for chemical stability in Hanks’ Balanced Salt Solution (HBSS) over a 2-hour incubation period at 37°C. Stock solutions prepared in DMSO were diluted in HBSS to the desired test concentration. Samples were collected at time zero and after 2 hours of incubation. The remaining concentration of each compound was quantified by HPLC-UV, with stability assessed by comparing the percentage of compound remaining after 2 hours relative to the initial concentration.

[2] = target: T. cruzi malic enzyme (TcME) (Trypanosoma cruzi, UniProt Q4DJ68); assay: Malic enzyme (TcME) inhibition assay, diaphorase/resazurin coupled; format: biochemical; conditions: concentration necessary to inhibit 50% of T. cruzi Malic enzyme enzymatic activity
Sequence of T. cruzi malic enzyme (TcME) (Q4DJ68 entry or part of it): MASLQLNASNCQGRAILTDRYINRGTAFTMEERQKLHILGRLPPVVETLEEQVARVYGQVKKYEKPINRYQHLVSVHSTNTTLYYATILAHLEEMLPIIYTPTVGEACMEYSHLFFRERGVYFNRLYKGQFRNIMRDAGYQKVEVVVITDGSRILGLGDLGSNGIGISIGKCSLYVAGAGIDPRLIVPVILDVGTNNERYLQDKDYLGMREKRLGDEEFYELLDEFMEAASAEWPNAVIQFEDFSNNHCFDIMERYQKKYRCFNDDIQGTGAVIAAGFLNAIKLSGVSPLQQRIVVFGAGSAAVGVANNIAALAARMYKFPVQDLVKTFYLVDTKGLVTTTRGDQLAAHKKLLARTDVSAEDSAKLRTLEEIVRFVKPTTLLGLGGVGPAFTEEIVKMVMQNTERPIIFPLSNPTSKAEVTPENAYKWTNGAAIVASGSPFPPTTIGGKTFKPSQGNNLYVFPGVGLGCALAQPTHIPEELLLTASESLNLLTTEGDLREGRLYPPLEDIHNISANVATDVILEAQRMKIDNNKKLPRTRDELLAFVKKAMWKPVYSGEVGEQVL
Protocol: The TcME inhibition assay was performed as previously described, with minor modifications ([Mercaldi et al., 2021]). Briefly, a coupled assay with the enzyme diaphorase and resorufin fluorescence (Ex 545 nm/Em 600 nm) was recorded every 30 s for 6 min in a CLARIOstar plate reader (BMG LabTech). The final concentrations of reagents in the assay were: 0.02 mM NADP+, 0.4 mM L-aspartate, 0.45 nM TcMEc, 1 U/mL diaphorase, and 10 μM resazurin, all in 50 mM Tris-HCl buffer containing 50 mM NaCl and 2 mM MnCl2 at pH 7.5. The reaction was initiated by adding 1.32 mM L-malate.

`COc1ccc(NS(=O)(=O)c2cccc(NC(=O)c3cnccn3)c2)cc1` [AC-R008, N-(3-(N-(4-methoxyphenyl)sulfamoyl)phenyl)pyrazine-2-carboxamide] showed an Ataxia ([1]; 0-15 min) of 0A, a Convulsions ([1]; 0-15 min) of 0A and a Hypnosis ([1]; 0-15 min) of 0A. For the same compound, the Limb abduction ([1]; 0-15 min) was 0A, the Muscle tone ([1]; 0-15 min) was 0A and the Pedaling ([1]; 0-15 min) was 0A. It also gave a Piloerection ([1]; 0-15 min) of 0A, a Ptosis ([1]; 0-15 min) of 0A and a Salivation ([1]; 0-15 min) of 0A. The Sedation ([1]; 0-15 min) was 0A, the Tachypnea ([1]; 0-15 min) was 0A and the Tremors ([1]; 0-15 min) was 0A. The Urination ([1]; 0-15 min) was 0A, the Vocalization ([1]; 0-15 min) was 0A and the Ataxia ([1]; 15 min) was 0A. It also gave a Convulsions ([1]; 15 min) of 0A, a Hypnosis ([1]; 15 min) of 0A and a Limb abduction ([1]; 15 min) of 0A. For the same compound, the Muscle tone ([1]; 15 min) was 0A, the Pedaling ([1]; 15 min) was 0A and the Piloerection ([1]; 15 min) was 0A. For the same compound, the Ptosis ([1]; 15 min) was 0A, the Salivation ([1]; 15 min) was 0A and the Sedation ([1]; 15 min) was 0A. For the same compound, the Tachypnea ([1]; 15 min) was 0A, the Tremors ([1]; 15 min) was 0A and the Urination ([1]; 15 min) was 0A. The Vocalization ([1]; 15 min) was 0A, the Ataxia ([1]; 30 min) was 0A and the Convulsions ([1]; 30 min) was 0A. For the same compound, the Hypnosis ([1]; 30 min) was 0A, the Limb abduction ([1]; 30 min) was 0A and the Muscle tone ([1]; 30 min) was 0A. For the same compound, the Pedaling ([1]; 30 min) was 0A, the Piloerection ([1]; 30 min) was 0A and the Ptosis ([1]; 30 min) was 0A. It also gave a Salivation ([1]; 30 min) of 0A, a Sedation ([1]; 30 min) of 0A and a Tachypnea ([1]; 30 min) of 0A. It also gave a Tremors ([1]; 30 min) of 0A, a Urination ([1]; 30 min) of 0A and a Vocalization ([1]; 30 min) of 0A. For the same compound, the Ataxia ([1]; 60 min) was 0A, the Convulsions ([1]; 60 min) was 0A and the Hypnosis ([1]; 60 min) was 0A. For the same compound, the Limb abduction ([1]; 60 min) was 0A, the Muscle tone ([1]; 60 min) was 0A and the Pedaling ([1]; 60 min) was 0A. The Piloerection ([1]; 60 min) was 0A, the Ptosis ([1]; 60 min) was 0A and the Salivation ([1]; 60 min) was 0A. The Sedation ([1]; 60 min) was 0A, the Tachypnea ([1]; 60 min) was 0A and the Tremors ([1]; 60 min) was 0A. For the same compound, the Urination ([1]; 60 min) was 0A, the Vocalization ([1]; 60 min) was 0A and the Ataxia ([1]; 2h) was 0A. For the same compound, the Convulsions ([1]; 2h) was 0A, the Hypnosis ([1]; 2h) was 0A and the Limb abduction ([1]; 2h) was 0A. The Muscle tone ([1]; 2h) was 0A, the Pedaling ([1]; 2h) was 0A and the Piloerection ([1]; 2h) was 0A. For the same compound, the Ptosis ([1]; 2h) was 0A, the Salivation ([1]; 2h) was 0A and the Sedation ([1]; 2h) was 0A. For the same compound, the Tachypnea ([1]; 2h) was 0A, the Tremors ([1]; 2h) was 0A and the Urination ([1]; 2h) was 0A. The Vocalization ([1]; 2h) was 0A, the Ataxia ([1]; 3h) was 0A and the Convulsions ([1]; 3h) was 0A. For the same compound, the Hypnosis ([1]; 3h) was 0A, the Limb abduction ([1]; 3h) was 0A and the Muscle tone ([1]; 3h) was 0A. It also gave a Pedaling ([1]; 3h) of 0A, a Piloerection ([1]; 3h) of 0A and a Ptosis ([1]; 3h) of 0A. The Salivation ([1]; 3h) was 0A, the Sedation ([1]; 3h) was 0A and the Tachypnea ([1]; 3h) was 0A. The Tremors ([1]; 3h) was 0A, the Urination ([1]; 3h) was 0A and the Vocalization ([1]; 3h) was 0A. The Ataxia ([1]; 4h) was 0A, the Convulsions ([1]; 4h) was 0A and the Hypnosis ([1]; 4h) was 0A. The Limb abduction ([1]; 4h) was 0A, the Muscle tone ([1]; 4h) was 0A and the Pedaling ([1]; 4h) was 0A. The Piloerection ([1]; 4h) was 0A, the Ptosis ([1]; 4h) was 0A and the Salivation ([1]; 4h) was 0A. For the same compound, the Sedation ([1]; 4h) was 0A, the Tachypnea ([1]; 4h) was 0A and the Tremors ([1]; 4h) was 0A. The Urination ([1]; 4h) was 0A, the Vocalization ([1]; 4h) was 0A and the Ataxia ([1]; 24h) was 0A. For the same compound, the Convulsions ([1]; 24h) was 0A, the Hypnosis ([1]; 24h) was 0A and the Limb abduction ([1]; 24h) was 0A. The Muscle tone ([1]; 24h) was 0A, the Pedaling ([1]; 24h) was 0A and the Piloerection ([1]; 24h) was 0A. The Ptosis ([1]; 24h) was 0A, the Salivation ([1]; 24h) was 0A and the Sedation ([1]; 24h) was 0A. For the same compound, the Tachypnea ([1]; 24h) was 0A, the Tremors ([1]; 24h) was 0A and the Urination ([1]; 24h) was 0A. For the same compound, the Vocalization ([1]; 24h) was 0A, the “chemical stability in HBSS buffer (in words)” value (Stability in HBSS buffer) was “remained chemically stable” and the IC50 [2] was 0.5 µM.
With `CC(C)Oc1ccc(NS(=O)(=O)c2cccc(NC(=O)c3cnccn3)c2)cc1` [AC-M110, N-(3-(N-(4-isopropoxyphenyl)sulfamoyl)phenyl)pyrazine-2-carboxamide] the Ataxia ([1]; 0-15 min) was 0A, the Convulsions ([1]; 0-15 min) was 0A and the Hypnosis ([1]; 0-15 min) was 0A. It also gave a Limb abduction ([1]; 0-15 min) of 0A, a Muscle tone ([1]; 0-15 min) of 0A and a Pedaling ([1]; 0-15 min) of 0A. It also gave a Piloerection ([1]; 0-15 min) of 0A, a Ptosis ([1]; 0-15 min) of 0A and a Salivation ([1]; 0-15 min) of 0A. It also gave a Sedation ([1]; 0-15 min) of 0A, a Tachypnea ([1]; 0-15 min) of 0A and a Tremors ([1]; 0-15 min) of 0A. The Urination ([1]; 0-15 min) was 0A, the Vocalization ([1]; 0-15 min) was 0A and the Ataxia ([1]; 15 min) was 0A. For the same compound, the Convulsions ([1]; 15 min) was 0A, the Hypnosis ([1]; 15 min) was 0A and the Limb abduction ([1]; 15 min) was 0A. For the same compound, the Muscle tone ([1]; 15 min) was 0A, the Pedaling ([1]; 15 min) was 0A and the Piloerection ([1]; 15 min) was 0A. For the same compound, the Ptosis ([1]; 15 min) was 0A, the Salivation ([1]; 15 min) was 0A and the Sedation ([1]; 15 min) was 0A. For the same compound, the Tachypnea ([1]; 15 min) was 0A, the Tremors ([1]; 15 min) was 0A and the Urination ([1]; 15 min) was 0A. It also gave a Vocalization ([1]; 15 min) of 0A, an Ataxia ([1]; 30 min) of 0A and a Convulsions ([1]; 30 min) of 0A. For the same compound, the Hypnosis ([1]; 30 min) was 0A, the Limb abduction ([1]; 30 min) was 0A and the Muscle tone ([1]; 30 min) was 0A. The Pedaling ([1]; 30 min) was 0A, the Piloerection ([1]; 30 min) was 0A and the Ptosis ([1]; 30 min) was 0A. It also gave a Salivation ([1]; 30 min) of 0A, a Sedation ([1]; 30 min) of 0A and a Tachypnea ([1]; 30 min) of 0A. The Tremors ([1]; 30 min) was 0A, the Urination ([1]; 30 min) was 0A and the Vocalization ([1]; 30 min) was 0A. For the same compound, the Ataxia ([1]; 60 min) was 0A, the Convulsions ([1]; 60 min) was 0A and the Hypnosis ([1]; 60 min) was 0A. The Limb abduction ([1]; 60 min) was 0A, the Muscle tone ([1]; 60 min) was 0A and the Pedaling ([1]; 60 min) was 0A. The Piloerection ([1]; 60 min) was 0A, the Ptosis ([1]; 60 min) was 0A and the Salivation ([1]; 60 min) was 0A. For the same compound, the Sedation ([1]; 60 min) was 0A, the Tachypnea ([1]; 60 min) was 0A and the Tremors ([1]; 60 min) was 0A. For the same compound, the Urination ([1]; 60 min) was 0A, the Vocalization ([1]; 60 min) was 0A and the Ataxia ([1]; 2h) was 0A. It also gave a Convulsions ([1]; 2h) of 0A, a Hypnosis ([1]; 2h) of 0A and a Limb abduction ([1]; 2h) of 0A. The Muscle tone ([1]; 2h) was 0A, the Pedaling ([1]; 2h) was 0A and the Piloerection ([1]; 2h) was 0A. The Ptosis ([1]; 2h) was 0A, the Salivation ([1]; 2h) was 0A and the Sedation ([1]; 2h) was 0A. The Tachypnea ([1]; 2h) was 0A, the Tremors ([1]; 2h) was 0A and the Urination ([1]; 2h) was 0A. The Vocalization ([1]; 2h) was 0A, the Ataxia ([1]; 3h) was 0A and the Convulsions ([1]; 3h) was 0A. It also gave a Hypnosis ([1]; 3h) of 0A, a Limb abduction ([1]; 3h) of 0A and a Muscle tone ([1]; 3h) of 0A. The Pedaling ([1]; 3h) was 0A, the Piloerection ([1]; 3h) was 0A and the Ptosis ([1]; 3h) was 0A. It also gave a Salivation ([1]; 3h) of 0A, a Sedation ([1]; 3h) of 0A and a Tachypnea ([1]; 3h) of 0A. It also gave a Tremors ([1]; 3h) of 0A, a Urination ([1]; 3h) of 0A and a Vocalization ([1]; 3h) of 0A. It also gave an Ataxia ([1]; 4h) of 0A, a Convulsions ([1]; 4h) of 0A and a Hypnosis ([1]; 4h) of 0A. For the same compound, the Limb abduction ([1]; 4h) was 0A, the Muscle tone ([1]; 4h) was 0A and the Pedaling ([1]; 4h) was 0A. For the same compound, the Piloerection ([1]; 4h) was 0A, the Ptosis ([1]; 4h) was 0A and the Salivation ([1]; 4h) was 0A. The Sedation ([1]; 4h) was 0A, the Tachypnea ([1]; 4h) was 0A and the Tremors ([1]; 4h) was 0A. It also gave a Urination ([1]; 4h) of 0A, a Vocalization ([1]; 4h) of 0A and an Ataxia ([1]; 24h) of 0A. For the same compound, the Convulsions ([1]; 24h) was 0A, the Hypnosis ([1]; 24h) was 0A and the Limb abduction ([1]; 24h) was 0A. It also gave a Muscle tone ([1]; 24h) of 0A, a Pedaling ([1]; 24h) of 0A and a Piloerection ([1]; 24h) of 0A. It also gave a Ptosis ([1]; 24h) of 0A, a Salivation ([1]; 24h) of 0A and a Sedation ([1]; 24h) of 0A. The Tachypnea ([1]; 24h) was 0A, the Tremors ([1]; 24h) was 0A and the Urination ([1]; 24h) was 0A. For the same compound, the Vocalization ([1]; 24h) was 0A, the “chemical stability in HBSS buffer (in words)” value (Stability in HBSS buffer) was “remained chemically stable” and the IC50 [2] was 7 µM.
